# Test results from ChEMBL document CHEMBL5532755, “Unveiling the potent activity of a synthetic ion transporter against multidrug-resistant Gram-positive bacteria and biofilms” (RSC Med Chem, 2024).
# Activity calls are given as the source filed them. No cut-off for these calls is given here.
# Legend:
# [1] = test system: Cell membrane; experiment: Induction of membrane depolarization in methicillin-resistant Staphylococcus aureus ATCC 33591 assessed as depolarized bacterial cells by measuring green fluorescence at 10 to 15 ug/ml incubated for 4 hrs by DiOC2(3) dye based flow cytometry analysis (reference value: 27.3%); format: cell membranes; details: dose 10-15 µg/ml
# [2] = test system: Cell membrane; experiment: Induction of membrane depolarization in methicillin-resistant Staphylococcus aureus ATCC 33591 assessed as depolarized bacterial cells by measuring red to green fluorescence ratio at 10 to 15 ug/ml incubated for 4 hrs by DiOC2(3) dye based flow cytometry analysis; format: cell membranes; details: dose 10-15 µg/ml
# [3] = test system: Cell membrane; experiment: Induction of membrane depolarization in methicillin-resistant Staphylococcus aureus ATCC 33591 assessed as depolarized bacterial cells by measuring red fluorescence at 10 to 15 ug/ml incubated for 4 hrs by DiOC2(3) dye based flow cytometry analysis (reference value: 63.8%); format: cell membranes; details: dose 10-15 µg/ml
# [4] = Hemolytic activity in human RBC incubated for 1 hr by microplate reader method; format: toxicity, cell-based, Erythrocyte; details: human red blood cells (erythrocytes)
# [5] = test system: Staphylococcus aureus; experiment: Induction of ROS generation in methicillin-resistant Staphylococcus aureus ATCC 33591 assessed as increase in fluorescence intensity by DCFH-DA dye based flow cytometry analysis; format: functional, organism-based; details: dose 8-16 µg/ml
# [6] = test system: Cell membrane; experiment: Induction of inner membrane permeabilization in methicillin-resistant Staphylococcus aureus ATCC 33591 assessed as appearance of dead bacterial cells with compromised membrane integrity at 16 ug/ml incubated for 4 hrs by Syto-9/PI staining based confocal microscopy; format: cell membranes; details: dose 16.0 µg/ml
# [7] = Selectivity index, ratio of HC50 for hemolytic activity in human RBC to MIC for antibacterial activity against methicillin-resistant Staphylococcus aureus R3889; format: toxicity; details: human red blood cells (erythrocytes), read-out: Selectivity Index
# [8] = test system: Staphylococcus aureus; experiment: Bactericidal activity against vancomycin-resistant Staphylococcus aureus 1 assessed as reduction in bacterial count at 16 ug/ml observed after 12 hrs by time killing analysis; format: functional; parameters: scale not given: the % may be the effect or the level left; details: dose 16 µg/ml
# [9] = Selectivity index, ratio of HC50 for hemolytic activity in human RBC to MIC for antibacterial activity against vancomycin-resistant Staphylococcus aureus 4; format: toxicity; details: human red blood cells (erythrocytes), read-out: Selectivity Index
# [10] = Selectivity index, ratio of HC50 for hemolytic activity in human RBC to MIC for antibacterial activity against Enterococcus faecium; format: toxicity; details: human red blood cells (erythrocytes), read-out: Selectivity Index
# [11] = test system: Escherichia coli; experiment: Antibacterial activity against Escherichia coli MTCC 443 incubated for 16 to 18 hrs by broth dilution method; format: functional; details: time 16-18 hrs
# [12] = Selectivity index, ratio of HC50 for hemolytic activity in human RBC to MIC for antibacterial activity against methicillin-resistant Staphylococcus aureus R3890; format: toxicity; details: human red blood cells (erythrocytes), read-out: Selectivity Index
# [13] = Selectivity index, ratio of HC50 for hemolytic activity in human RBC to MIC for antibacterial activity against vancomycin-resistant Enterococcus faecium 909; format: toxicity; details: human red blood cells (erythrocytes), read-out: Selectivity Index
# [14] = test system: Staphylococcus aureus; experiment: Bactericidal activity against methicillin-resistant Staphylococcus aureus ATCC 33591 assessed as log reduction in bacterial titer at 8 ug/ml observed within 12 hrs by time killing analysis; format: functional; details: dose 8 µg/ml
# [15] = test system: Enterococcus faecium; experiment: Antibacterial activity against Enterococcus faecium ATCC 19634 incubated for 16 to 18 hrs by broth dilution method; format: functional; details: time 16-18 hrs
# [16] = test system: Staphylococcus aureus; experiment: Induction of resistance development in methicillin-resistant Staphylococcus aureus ATCC 33591 measured after 10 days by broth dilution method; format: functional; details: time 10.0 day
# [17] = test system: Staphylococcus aureus; experiment: Bactericidal activity against vancomycin-resistant Staphylococcus aureus 1 assessed as log reduction in bacterial titer at 8 ug/ml observed after 12 hrs by time killing analysis; format: functional; details: dose 8 µg/ml
# [18] = test system: Staphylococcus aureus; experiment: Antibacterial activity against methicillin-resistant Staphylococcus aureus R3545 incubated for 16 to 18 hrs by broth dilution method; format: functional; details: time 16-18 hrs
# [19] = Selectivity index, ratio of HC50 for hemolytic activity in human RBC to MIC for antibacterial activity against methicillin-resistant Staphylococcus aureus R3545; format: toxicity; details: human red blood cells (erythrocytes), read-out: Selectivity Index
# [20] = Selectivity index, ratio of HC50 for hemolytic activity in human RBC to MIC for antibacterial activity against vancomycin-resistant Enterococcus faecium 903; format: toxicity; details: human red blood cells (erythrocytes), read-out: Selectivity Index
# [21] = test system: Cell membrane; experiment: Induction of membrane depolarization in methicillin-resistant Staphylococcus aureus ATCC 33591 assessed as depolarized bacterial cells by measuring red to green fluorescence ratio at 8 ug/ml incubated for 4 hrs by DiOC2(3) dye based flow cytometry analysis; format: cell membranes; details: dose 8.0 µg/ml
# [22] = test system: Staphylococcus aureus; experiment: Antibacterial activity against methicillin-resistant Staphylococcus aureus R3890 incubated for 16 to 18 hrs by broth dilution method; format: functional; details: time 16-18 hrs
# [23] = test system: Enterococcus faecium; experiment: Antibacterial activity against vancomycin-resistant Enterococcus faecium 903 incubated for 16 to 18 hrs by broth dilution method; format: functional; details: time 16-18 hrs
# [24] = test system: Cell membrane; experiment: Induction of cytoplasmic membrane depolarization in methicillin-resistant Staphylococcus aureus ATCC 33591 assessed as increase in fluorescence intensity measured after 24 min by DiSC3-5 dye based fluorescence method; details: dose 4-16 µg/ml
# [25] = test system: Staphylococcus aureus; experiment: Antibiofilm activity against methicillin-resistant Staphylococcus aureus ATCC 33591 assessed as eradication of bacteria by measuring colocalization of green and red cells at 64 ug/ml by Syto-9/PI staining based confocal laser scanning microscopy; format: functional, organism-based; details: dose 64.0 µg/ml
# [26] = test system: Staphylococcus aureus; experiment: Antibiofilm activity against methicillin-resistant Staphylococcus aureus ATCC 33591 assessed as reduction in biofilm biomass at 64 ug/ml incubated for 24 hrs by crystal violet staining based analysis relative to control; format: functional; parameters: scale not given: the % may be the effect or the level left; details: dose 64 µg/ml
# [27] = test system: Staphylococcus aureus; experiment: Antibacterial activity against Staphylococcus aureus MTCC 737 incubated for 16 to 18 hrs by broth dilution method; format: functional; details: time 16-18 hrs
# [28] = Selectivity index, ratio of HC50 for hemolytic activity in human RBC to MIC for antibacterial activity against vancomycin-resistant Staphylococcus aureus 1; format: toxicity; details: human red blood cells (erythrocytes), read-out: Selectivity Index
# [29] = test system: Staphylococcus aureus; experiment: Antibiofilm activity against methicillin-resistant Staphylococcus aureus ATCC 33591 assessed as log reduction in bacterial burden in biofilm at 64 ug/ml incubated for 18 hrs; format: functional; details: dose 64 µg/ml
# [30] = Cytotoxicity against MDCK cells assessed as cell viability at 0.5 to 4 ug/ml incubated for 24 hrs by alamar blue assay relative to control; format: toxicity, cell-based, Canis lupus familiaris; details: dog, at 0.5 to 4 µg/mL, dose 0.5-4 µg/ml, read-out: Activity
# [31] = test system: Staphylococcus aureus; experiment: Antibacterial activity against methicillin-resistant Staphylococcus aureus ATCC 33591 incubated for 16 to 18 hrs by broth dilution method; format: functional; details: time 16-18 hrs
# [32] = test system: Staphylococcus aureus; experiment: Antibiofilm activity against methicillin-resistant Staphylococcus aureus ATCC 33591 assessed as biofilm thickness at 64 ug/ml by Syto-9/PI staining based confocal laser scanning microscopy; format: functional; details: dose 64 µg/ml
# [33] = Cytotoxicity against MDCK cells assessed as cell viability incubated for 24 hrs by alamar blue staining based assay; format: toxicity, Canis lupus familiaris; details: dog
# [34] = test system: Staphylococcus epidermidis; experiment: Antibacterial activity against Staphylococcus epidermidis MTCC 3615 incubated for 16 to 18 hrs by broth dilution method; format: functional; details: time 16-18 hrs
# [35] = test system: Staphylococcus aureus; experiment: Antibiofilm activity against methicillin-resistant Staphylococcus aureus ATCC 33591 assessed as reduction in biofilm biomass at 32 ug/ml incubated for 24 hrs by crystal violet staining based analysis relative to control; format: functional; parameters: scale not given: the % may be the effect or the level left; details: dose 32 µg/ml
# [36] = test system: Cell membrane; experiment: Induction of cytoplasmic membrane depolarization in vancomycin-resistant Staphylococcus aureus 1 assessed as increase in fluorescence intensity and measured after 24 min by DiSC3-5 dye based fluorescence method; details: dose 4-16 µg/ml
# [37] = test system: Staphylococcus aureus; experiment: Antibacterial activity against vancomycin-resistant Staphylococcus aureus 1 incubated for 16 to 18 hrs by broth dilution method; format: functional; details: time 16-18 hrs
# [38] = Selectivity index, ratio of HC50 for hemolytic activity in human RBC to MIC for antibacterial activity against Staphylococcus epidermidis; format: toxicity; details: human red blood cells (erythrocytes), read-out: Selectivity Index
# [39] = test system: Enterococcus faecium; experiment: Antibacterial activity against vancomycin-resistant Enterococcus faecium 909 incubated for 16 to 18 hrs by broth dilution method; format: functional; details: time 16-18 hrs
# [40] = Selectivity index, ratio of HC50 for hemolytic activity in human RBC to MIC for antibacterial activity against methicillin-resistant Staphylococcus aureus ATCC 33591; format: toxicity; details: human red blood cells (erythrocytes), read-out: Selectivity Index
# [41] = test system: Staphylococcus aureus; experiment: Antibiofilm activity against methicillin-resistant Staphylococcus aureus ATCC 33591 assessed as log reduction in bacterial burden in biofilm at 32 ug/ml incubated for 18 hrs; format: functional; details: dose 32 µg/ml
# [42] = Selectivity index, ratio of HC50 for hemolytic activity in human RBC to MIC for antibacterial activity against Staphylococcus aureus; format: toxicity; details: human red blood cells (erythrocytes), read-out: Selectivity Index
# [43] = test system: Staphylococcus aureus; experiment: Antibacterial activity against methicillin-resistant Staphylococcus aureus R3889 incubated for 16 to 18 hrs by broth dilution method; format: functional; details: time 16-18 hrs
# [44] = test system: Cell membrane; experiment: Induction of membrane depolarization in methicillin-resistant Staphylococcus aureus ATCC 33591 assessed as depolarized bacterial cells by measuring red fluorescence at 8 ug/ml incubated for 4 hrs by DiOC2(3) dye based flow cytometry analysis (reference value: 63.8%); format: cell membranes; details: dose 8.0 µg/ml
# [45] = test system: Staphylococcus aureus; experiment: Antibacterial activity against vancomycin-resistant Staphylococcus aureus 4 incubated for 16 to 18 hrs by broth dilution method; format: functional; details: time 16-18 hrs
# [46] = test system: Cell membrane; experiment: Induction of membrane depolarization in methicillin-resistant Staphylococcus aureus ATCC 33591 assessed as depolarized bacterial cells by measuring green fluorescence at 8 ug/ml incubated for 4 hrs by DiOC2(3) dye based flow cytometry analysis (reference value: 27.3%); format: cell membranes; details: dose 8.0 µg/ml
# [47] = Hemolytic activity in human RBC at 0.5 to 2 ug/ml incubated for 1 hr by microplate reader method relative to control; format: toxicity, cell-based, Erythrocyte; details: human red blood cells (erythrocytes), at 0.5 to 2 µg/mL, dose 0.5-2 µg/ml, read-out: Activity
# [48] = test system: Staphylococcus aureus; experiment: Bactericidal activity against methicillin-resistant Staphylococcus aureus ATCC 33591 assessed as eradication of bacterial cells at 8 ug/ml observed within 12 hrs by time killing analysis relative to control; format: functional; details: dose 8 µg/ml
# [49] = test system: Staphylococcus aureus; experiment: Induction of resistance development in methicillin-resistant Staphylococcus aureus ATCC 33591 assessed as fold increase in MIC measured after 3 days by broth dilution method relative to control; format: functional; details: time 3.0 day
# [50] = test system: Staphylococcus aureus; experiment: Induction of resistance development in methicillin-resistant Staphylococcus aureus ATCC 33591 assessed as fold increase in MIC measured after 5 days by broth dilution method relative to control; format: functional; details: time 5.0 day
# [51] = test system: Staphylococcus aureus; experiment: Induction of resistance development in methicillin-resistant Staphylococcus aureus ATCC 33591 assessed as fold increase in MIC measured after 10 days by broth dilution method relative to control; format: functional; details: time 10.0 day
smiles,measurement,setting,value
N#CC(C#N)=NNc1cccc(Cl)c1,Activity,[1],47.8%
same,Ratio,[2],1.1
same,Activity,[3],49.1%
CCCCNc1nc(NCCCC)nc(N2CC3CC(C2)CN(c2nc(NCCCC)nc(NCCCC)n2)C3)n1,HC50 at 1 h,[4],810 µg/mL
same,Activity,[5],Dose-Dependent Effect
same,Activity,[6],Active
same,selectivity ratio,[7],800
same,Activity,[8],100%
same,selectivity ratio,[9],800
same,selectivity ratio,[10],400
same,MIC,[11],64 mg/L
same,selectivity ratio,[12],800
same,selectivity ratio,[13],800
same,log(activity),[14],>5
same,MIC,[15],0.25 mg/L
same,Activity,[16],inactive
same,log(activity),[17],3.5
same,MIC,[18],0.5 mg/L
same,selectivity ratio,[19],800
same,selectivity ratio,[20],800
same,Ratio,[21],1.1
same,MIC,[22],0.5 mg/L
same,MIC,[23],1 mg/L
same,Activity,[24],Dose-Dependent Effect
same,Activity,[25],Active
same,Activity,[26],40%
same,MIC,[27],0.5 mg/L
same,selectivity ratio,[28],800
same,log(activity),[29],~2
same,viability at 24 h,[30],> 95%
same,MIC,[31],0.5 mg/L
same,Activity,[32],3 um
same,EC50 at 24 h,[33],21 mg/L
same,MIC,[34],4 mg/L
same,Activity,[35],50%
same,Activity,[36],Dose-Dependent Effect
same,MIC,[37],0.5 mg/L
same,selectivity ratio,[38],400
same,MIC,[39],1 mg/L
same,selectivity ratio,[40],800
same,log(activity),[41],1.7
same,selectivity ratio,[42],400
same,MIC,[43],0.5 mg/L
same,Activity,[44],47.8%
same,MIC,[45],0.5 mg/L
same,Activity,[46],43.2%
same,hemolysis at 1 h,[47],0%
same,Activity,[48],100%
CC(=O)O[C@H]1C[C@@]2(C)[C@@H](C[C@@H](O)[C@H]3[C@@]4(C)CC[C@@H](O)[C@@H](C)[C@@H]4CC[C@@]32C)/C1=C(\CCC=C(C)C)C(=O)O,fold change (FC),[49],32
same,fold change (FC),[50],128
same,fold change (FC),[51],4000
